A short description of this series: gradient 5% acetonitrile 3 min, to 50% in 2 min, to 85% in 15 min, held 3 min, 100 µL/min. As to conditions: column: Zorbax Extend-C18 2.1 x 50 mm; eluents: water / acetonitrile, 0.1% formic acid. The gist of the method:
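Pure standards were analyzed in mixtures of ~100 molecules using HPLC coupled to a quadrupole time-of-flight mass spectrometer, in both positive and negative ionization mode. Separation used a Zorbax Extend-C18 column (2.1 × 50 mm, 1.8 μm) at 100 μL/min, with water and acetonitrile each containing 0.1% formic acid. Dead and dwell volumes were 40 μL and 900 μL, and data were collected over 3 months. Retention time was read from computationally picked adduct peaks, each inspected manually.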
The molecule `O=c1c2sccc2n(Cc2nc(-c3cccc(C(F)(F)F)c3)no2)c(=O)n1Cc1ccccc1` returned an RP-LC retention time of 1190 s.

Take `CCOC(=O)c1ccccc1NC(=O)Cn1c(=O)n(-c2cccc(C)c2)c(=O)c2c1cc(C)n2C`: the RP-LC retention time worked out at 966 s.

`Cc1ccc(NS(=O)(=O)c2cc(-c3[nH]ncc3C(=O)N(C)C)oc2C)cc1F` came in with an RP-LC retention time of 713 s.

Molecule `CN1C(=O)C(C)(C)N(Cc2ccccc2)c2ccccc21` had an RP-LC retention time of 1080 s.

The molecule `CCCc1ccc(S(=O)(=O)N2C[C@@H](F)C[C@H]2C(=O)N2CCCCC2)cc1` yielded an RP-LC retention time of 937 s.

In the case of `COC(=O)c1cn(CC(=O)NC(C)c2ccc3c(c2)OCCCO3)c2ccccc12` (centres undefined), the RP-LC retention time was 835 s.

The molecule `Cc1cccc(S(=O)(=O)N2CC3CN(C(=O)CC4CCCC4)CC(C2)O3)c1` had an RP-LC retention time of 890 s.

In turn, `O=C(CCc1csc(NC(=O)c2cccs2)n1)Nc1ccc(F)c(Cl)c1` yielded an RP-LC retention time of 869 s.

Molecule `O=C(NCc1ccc(N2CCN(c3ccccn3)CC2)cc1)c1ccoc1` yielded an RP-LC retention time of 624 s.

With `COC(=O)C1=C(C)NC(=O)NC1c1cn(-c2ccccc2)nc1-c1ccc(F)cc1` (centres undefined), the RP-LC retention time is 857 s.

Consider `O=C(NCc1ccc(-c2noc(-c3ccc(F)c(F)c3)n2)s1)C1CC1`, for which the RP-LC retention time stood at 903 s.

In turn, `O=C(NCCSc1ncc(-c2ccc(F)cc2)[nH]1)c1ccccc1Cl` registered an RP-LC retention time of 604 s.

Regarding `COC(=O)c1cccc(NS(=O)(=O)c2cc3n(c2)CCN(C)C3=O)c1`, the RP-LC retention time was found to be 683 s.

Consider `CCOc1ccccc1N1CCN(c2cc(C(=O)O)c3cc(NC(=O)C4CCCC4)ccc3n2)CC1`, for which the RP-LC retention time was found to be 638 s.

Molecule `COc1ccc(-n2ccc(=O)c(-c3nc(-c4ccccc4F)no3)n2)cc1` had an RP-LC retention time of 822 s.

For `CCOC(=O)c1c(NC(=O)CSc2n[nH]c(N)n2)sc(C)c1C`, the RP-LC retention time worked out at 696 s.

The molecule `O=C(NCCn1nc(-c2ccncc2)ccc1=O)c1ccc(C(F)(F)F)cc1` yielded an RP-LC retention time of 570 s.

The molecule `Cn1c(=O)n(C)c2cc(S(=O)(=O)c3ccccc3)c(NC(=O)Cc3cccc(F)c3)cc21` gave an RP-LC retention time of 799 s.

As for `COC(=O)c1c(C)c(C(=O)C(C)N(Cc2ccc(F)cc2)C(=O)C2CCCC2)c(C)n1C` (centres undefined), the RP-LC retention time worked out at 1090 s.

The molecule `CCC(C)NC(=O)c1cn(-c2cc(-c3nc(C(C)C)no3)ccn2)cn1` (centres undefined) showed an RP-LC retention time of 907 s.

`COc1ccc(NC(=O)Cn2c(C)nc3c(sc4nc(-c5ccccc5)ccc43)c2=O)cc1`: the RP-LC retention time came out at 988 s.

Take `O=C(Nc1ccccc1)C1CC(=O)N(CCc2c[nH]c3ccc(Cl)cc23)C1` (centres undefined): the RP-LC retention time stood at 825 s.

`COC(=O)CNC(=O)N1CCCC1c1ccc(C)cc1` (centres undefined) yielded an RP-LC retention time of 739 s.

On to `CCOC(=O)c1c(C)n(C)c2ccc(OCCN(C)C)cc12`, for which the RP-LC retention time came to 632 s.

Turning to `COc1ccc(C(=O)N2CCCC(COc3ccc(C(=O)NC(C)C)cc3)C2)c(C)c1` (centres undefined), the RP-LC retention time amounted to 842 s.

`Cc1ccc2nc(CN3CCN(C(=O)Nc4ccc5c(c4)OCO5)CC3)oc2c1` had an RP-LC retention time of 684 s.

`O=C(NCCCN1CCCCC1)C1=C2CCCN2c2ccc(F)cc2S1(=O)=O` came in with an RP-LC retention time of 606 s.

Take `COCCCn1c(=O)c2ccccc2n(Cc2nc(-c3cccc(Cl)c3)no2)c1=O`: the RP-LC retention time was determined as 1100 s.

Molecule `Cc1ccc(NC(=O)Cn2nc(N3CCCC3)c3ccccc3c2=O)cc1C` returned an RP-LC retention time of 1000 s.

Take `CCCn1c(C)cnc1C1CN(S(=O)(=O)c2ccc(F)c(F)c2)C1`: the RP-LC retention time was 695 s.

As for `COC(=O)c1ccccc1NC(=O)Cn1cnc2nc(-c3ccc(OC)cc3)ncc2c1=O`, the RP-LC retention time is 925 s.

In turn, `Cc1nc(N)n(CC(=O)NCc2ccc(F)cc2)c(=O)c1C` had an RP-LC retention time of 842 s.

As for `CS(=O)(=O)N1CCC(C(=O)Nc2ccc(C(F)(F)F)cc2)Oc2ccc(Cl)cc21` (centres undefined), the RP-LC retention time was found to be 1060 s.

`CCC(C)NC(=O)CC1CCN(C(=O)c2ccc3oc(C4CC4)nc3c2)CC1` (centres undefined) registered an RP-LC retention time of 710 s.

With `Cc1cccc(-c2noc(C3CCCN3C(=O)c3ccc4c(c3)OCO4)n2)c1` (centres undefined), the RP-LC retention time was 997 s.

For `NS(=O)(=O)c1ccc(CCNC(=O)CCCn2cccc2)cc1`, the RP-LC retention time amounted to 627 s.

Molecule `CCOCCCNC(=O)N1CCCC(C)(C(=O)NCc2ccc(C)cc2)C1` (centres undefined) showed an RP-LC retention time of 740 s.

`Cn1cnc(S(=O)(=O)NCCC2CCN(C(=O)c3ccccc3)CC2)c1` yielded an RP-LC retention time of 653 s.

As to `CC(=O)N1N=C(c2ccc(Br)cc2)CC1c1ccc2ncccc2c1` (centres undefined), the RP-LC retention time was 677 s.

On to `CC(CCc1ccccc1)NC(=O)C(=O)NC1CCCC1` (centres undefined), for which the RP-LC retention time was found to be 925 s.

In turn, `CCOC(=O)c1ccc(NC(=O)c2ccc(-n3nncc3C)cc2)cc1` displayed an RP-LC retention time of 757 s.

`COc1ccc(CNC(=O)C2CCCN2S(=O)(=O)c2cc3c(cc2C)NC(=O)CO3)cc1` (centres undefined) displayed an RP-LC retention time of 728 s.

On to `COCCNc1nc(-c2cccc(Cl)c2)nnc1C`, for which the RP-LC retention time is 657 s.

The molecule `O=C(C1CCN(S(=O)(=O)c2ccc(-c3noc(C4CC4)n3)cc2)CC1)N1CCc2ccccc2C1` showed an RP-LC retention time of 1050 s.

As to `O=c1c2sccc2n(Cc2nc(-c3ccc(Cl)c(F)c3)no2)c(=O)n1CCc1ccccc1`, the RP-LC retention time came out at 1280 s.

On to `Cc1cc2nc(C(=O)Nc3cccc(C#N)c3)cc(C)n2n1`, for which the RP-LC retention time came out at 901 s.

Turning to `COc1cc(=O)n2c(c1C(=O)NCCC1=CCCCC1)CCCC2`, the RP-LC retention time was 723 s.

Take `CC(C)NC(=O)c1ccc2c(c1)nc(CN1CCN(C(=O)NC(C)C)CC1)n2C`: the RP-LC retention time came to 576 s.

`CC1CCCN(c2ccn3c(=O)n(CC(=O)N(C)c4ccccc4)nc3n2)C1` (centres undefined) displayed an RP-LC retention time of 742 s.

In turn, `Oc1ccc(Br)cc1-c1nc2ncccn2c1Nc1cccc(C(F)(F)F)c1` came in with an RP-LC retention time of 1080 s.

`Clc1ccc(-c2nc(-c3ccc4nncn4c3)no2)cc1` displayed an RP-LC retention time of 896 s.

`COc1ccc(Nc2c(-c3ccc(OC)cc3)nc3ncccn23)cc1` showed an RP-LC retention time of 659 s.

In the case of `COc1ccc(NC(=O)N2CCC3(CC2)NC(=O)c2cc(C)ccc2N3C)cc1`, the RP-LC retention time turned out to be 742 s.

In turn, `CCCC(=O)Nc1ccc(-n2cnc(C(=O)NC3CCCCC3)c2)nc1` came in with an RP-LC retention time of 758 s.

Molecule `CCn1cc(C(=O)NCc2ccc(C)o2)c2cccnc21` came in with an RP-LC retention time of 742 s.

`CCc1nc2cc(N3CCCC(C(=O)NCC(C)C)C3)cnc2nc1CC` (centres undefined) registered an RP-LC retention time of 790 s.

With `O=C(CCc1nnc2ccc(N3CCCC3)nn12)N1CCN(c2ccccn2)CC1`, the RP-LC retention time stood at 585 s.

Regarding `COc1ccc(C2NCCc3c2[nH]c2ccccc32)cc1O` (centres undefined), the RP-LC retention time was 582 s.

On to `Cc1ccc(-n2nc3c(N4CCCC(C(=O)NCc5ccc(F)cc5)C4)nnc(C)c3c2C)cc1` (centres undefined), for which the RP-LC retention time was 761 s.

As for `O=C(Cc1ccccc1F)Nc1cnc(-c2cccnc2)nc1`, the RP-LC retention time turned out to be 652 s.

Regarding `O=C(O)c1cncc(NS(=O)(=O)c2ccc3c(c2)OCCO3)c1`, the RP-LC retention time was found to be 611 s.

As to `Cc1ccc(NS(=O)(=O)c2cc(-c3[nH]ncc3C(=O)N(C)C)oc2C)c(F)c1`, the RP-LC retention time was determined as 678 s.

With `Cc1ccccc1Nc1c(-c2cccc(Cl)c2)nc2cccc(C)n12`, the RP-LC retention time was 802 s.

`CC1(C(=O)NCc2ccc(F)cc2)Cn2cnc(C(=O)NC3CCCCCC3)c2C(=O)N1C1CC1` (centres undefined) gave an RP-LC retention time of 823 s.

The molecule `CCCN1C(=O)COc2ccc(-c3noc(-c4ccc(OCC)cc4)n3)cc21` had an RP-LC retention time of 1320 s.

`CCOc1nc2ccccc2nc1N1CCCC(C(=O)N2CCN(C)CC2)C1` (centres undefined) returned an RP-LC retention time of 646 s.

Molecule `CCN(CC)CCNC(=O)C1CCCN(c2nc3cccnc3s2)C1` (centres undefined) showed an RP-LC retention time of 577 s.

The molecule `O=C(c1ccco1)N1CCN(c2ccc(-c3noc(C4CC4)n3)cc2)CC1` had an RP-LC retention time of 864 s.

Regarding `CC(C)C(=O)Nc1c(C(=O)N2CCN(c3ccccn3)CC2)oc2ccccc12`, the RP-LC retention time stood at 649 s.

The molecule `O=C(NCc1cccc(Cl)c1)C1CCCN(c2nccnc2Oc2ccccc2)C1` (centres undefined) displayed an RP-LC retention time of 1020 s.

In the case of `COc1cccc(N2CCN(c3ccnc(SCC(=O)Nc4ccc(Cl)cc4)n3)CC2)c1`, the RP-LC retention time amounted to 805 s.

The molecule `CCCN1C(=O)COc2ccc(-c3noc(-c4ccc(OC)cc4C)n3)cc21` returned an RP-LC retention time of 1320 s.

Take `O=C(Cn1cnc2c(sc3nc(-c4ccccc4)ccc32)c1=O)NCc1ccccc1`: the RP-LC retention time stood at 953 s.

Consider `COc1cc(Nc2nc(C(=O)N3CCOCC3)cc3occc23)cc(OC)c1OC`, for which the RP-LC retention time turned out to be 710 s.

`CC(C)NC(=O)c1nnc(-c2ccc(S(=O)(=O)N3CCCCC3)cc2)o1` displayed an RP-LC retention time of 851 s.

For `CCCCNC(=O)C1c2cc(OC)c(OC)cc2C(=O)N(C)C1c1ccc(OC)c(OC)c1` (centres undefined), the RP-LC retention time amounted to 710 s.

`COc1cccc(Cn2c(N3CCSCC3)nc(C)cc2=O)c1` registered an RP-LC retention time of 869 s.

`COCc1noc([C@@H]2CC(F)(F)CN2C(=O)c2coc(C)n2)n1` registered an RP-LC retention time of 717 s.

`Cc1cc(OCC(=O)N[C@@H](CC(C)C)C(=O)O)c2c3c(c(=O)oc2c1)CCCC3` gave an RP-LC retention time of 894 s.

For the origin of these results see the METLIN SMRT retention time set (Domingo-Almenara et al. 2019).
